The text below walks through data of patent publication US5852210A, “Cinnamic acid derivatives” (G. D. Searle & Co., priority 1997, dated 1998).

The target in experiment [1] is T1, Human vitronectin receptor (αv β3) (Homo sapiens, UniProt P05106+P06756).
T1 construct: Human vitronectin receptor (αv β3) was purified from human placenta; from tissue; host or cells: human placenta
The experiment in a line: Vitronectin adhesion assay (solid phase receptor assay, αvβ3). Type of experiment: binding. The following applies: inhibition of binding of biotinylated human vitronectin (1 nM) to purified receptor; Table I; read-out: AvB3 IC50. In short, it runs like this:
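Placental αvβ3 (100 ng/well) coated in TBS with 1 mM Ca, Mg, Mn, pH 7.4, then compound competed with 1 nM biotinylated vitronectin for 2 h at room temperature (top compound concentration 1.0×10^-4 M). Bound ligand detected with HRP anti-biotin/OPD at 450 nm; values normalized to maximum binding, four-parameter curve fit.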

Experiment [2] deals with T2, Human fibrinogen receptor (αIIb β3) (Homo sapiens, UniProt P05106+P08514).
T2 construct: Human fibrinogen receptor (αIIb β3) was purified from outdated platelets; from tissue; host or cells: human outdated platelets
As to the kind of experiment: Purified IIb/IIIa receptor assay (solid phase receptor assay). The following applies: inhibition of binding of biotinylated human vitronectin (1 nM) to purified receptor; Table I. In short, it runs like this: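 Platelet-purified αIIbβ3 (100 ng/well) coated overnight at 4 °C, then competed 2 h at room temperature against 1 nM biotinylated human vitronectin in TBS with 1.0 mM Ca/Mg/Mn, pH 7.4, 1% BSA; top compound 1.0×10^-4 M. Bound ligand detected by HRP anti-biotin, A450, normalized to maximum binding, four-parameter fit.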

Molecules are shown by their SMILES. Structures can show the parent of a compound that is named as a salt.

By IC50 is commonly meant the concentration needed to halve the response being measured.

T1 sequence (P06756 31-889 limits assumed): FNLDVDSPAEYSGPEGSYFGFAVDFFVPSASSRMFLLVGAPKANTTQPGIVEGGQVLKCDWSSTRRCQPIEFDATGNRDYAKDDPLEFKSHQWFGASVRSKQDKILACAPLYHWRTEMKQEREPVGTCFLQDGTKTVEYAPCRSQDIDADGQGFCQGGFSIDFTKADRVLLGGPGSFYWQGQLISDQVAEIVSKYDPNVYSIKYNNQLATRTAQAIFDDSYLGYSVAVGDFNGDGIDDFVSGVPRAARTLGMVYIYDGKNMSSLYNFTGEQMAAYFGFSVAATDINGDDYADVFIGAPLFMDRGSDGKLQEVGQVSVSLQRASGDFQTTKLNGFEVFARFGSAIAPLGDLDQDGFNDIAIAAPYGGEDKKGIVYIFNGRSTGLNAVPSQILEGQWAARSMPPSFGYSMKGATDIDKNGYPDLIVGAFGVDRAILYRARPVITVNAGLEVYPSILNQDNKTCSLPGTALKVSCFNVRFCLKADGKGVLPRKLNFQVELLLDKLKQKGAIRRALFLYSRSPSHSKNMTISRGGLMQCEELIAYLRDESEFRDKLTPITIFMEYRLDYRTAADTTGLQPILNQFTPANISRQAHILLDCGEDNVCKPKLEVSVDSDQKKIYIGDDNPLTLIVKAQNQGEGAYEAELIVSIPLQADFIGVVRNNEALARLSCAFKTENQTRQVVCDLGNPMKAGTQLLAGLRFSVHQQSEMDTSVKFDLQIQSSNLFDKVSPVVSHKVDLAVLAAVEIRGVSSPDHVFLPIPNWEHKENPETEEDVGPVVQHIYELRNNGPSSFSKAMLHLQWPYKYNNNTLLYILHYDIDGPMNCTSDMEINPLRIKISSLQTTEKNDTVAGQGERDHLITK
T1 sequence (P06756 891-1048 limits assumed): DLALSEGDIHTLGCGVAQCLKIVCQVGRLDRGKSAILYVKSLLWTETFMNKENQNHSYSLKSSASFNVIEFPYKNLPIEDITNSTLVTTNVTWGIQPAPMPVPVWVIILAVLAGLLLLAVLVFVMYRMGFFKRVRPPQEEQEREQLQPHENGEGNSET
T1 sequence (P05106 27-788): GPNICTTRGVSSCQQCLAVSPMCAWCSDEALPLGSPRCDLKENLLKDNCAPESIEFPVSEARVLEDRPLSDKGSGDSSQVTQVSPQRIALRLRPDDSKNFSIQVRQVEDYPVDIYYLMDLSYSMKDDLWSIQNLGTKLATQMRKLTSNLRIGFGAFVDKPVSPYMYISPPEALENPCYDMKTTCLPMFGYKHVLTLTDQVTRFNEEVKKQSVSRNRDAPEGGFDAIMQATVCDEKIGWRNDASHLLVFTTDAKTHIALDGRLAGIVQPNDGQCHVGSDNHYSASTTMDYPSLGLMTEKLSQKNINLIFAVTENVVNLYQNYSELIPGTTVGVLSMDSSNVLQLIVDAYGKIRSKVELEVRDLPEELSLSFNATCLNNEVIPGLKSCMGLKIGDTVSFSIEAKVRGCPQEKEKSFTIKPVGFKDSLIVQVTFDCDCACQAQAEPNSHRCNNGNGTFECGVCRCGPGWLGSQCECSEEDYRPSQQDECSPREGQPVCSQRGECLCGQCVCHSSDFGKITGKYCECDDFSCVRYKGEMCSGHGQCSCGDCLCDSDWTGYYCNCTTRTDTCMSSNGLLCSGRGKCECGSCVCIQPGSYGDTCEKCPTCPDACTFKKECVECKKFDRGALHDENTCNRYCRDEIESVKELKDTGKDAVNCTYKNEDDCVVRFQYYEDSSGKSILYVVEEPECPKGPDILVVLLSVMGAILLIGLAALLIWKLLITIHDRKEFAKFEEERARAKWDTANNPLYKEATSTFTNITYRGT
T2 sequence (P08514 32-887 limits assumed): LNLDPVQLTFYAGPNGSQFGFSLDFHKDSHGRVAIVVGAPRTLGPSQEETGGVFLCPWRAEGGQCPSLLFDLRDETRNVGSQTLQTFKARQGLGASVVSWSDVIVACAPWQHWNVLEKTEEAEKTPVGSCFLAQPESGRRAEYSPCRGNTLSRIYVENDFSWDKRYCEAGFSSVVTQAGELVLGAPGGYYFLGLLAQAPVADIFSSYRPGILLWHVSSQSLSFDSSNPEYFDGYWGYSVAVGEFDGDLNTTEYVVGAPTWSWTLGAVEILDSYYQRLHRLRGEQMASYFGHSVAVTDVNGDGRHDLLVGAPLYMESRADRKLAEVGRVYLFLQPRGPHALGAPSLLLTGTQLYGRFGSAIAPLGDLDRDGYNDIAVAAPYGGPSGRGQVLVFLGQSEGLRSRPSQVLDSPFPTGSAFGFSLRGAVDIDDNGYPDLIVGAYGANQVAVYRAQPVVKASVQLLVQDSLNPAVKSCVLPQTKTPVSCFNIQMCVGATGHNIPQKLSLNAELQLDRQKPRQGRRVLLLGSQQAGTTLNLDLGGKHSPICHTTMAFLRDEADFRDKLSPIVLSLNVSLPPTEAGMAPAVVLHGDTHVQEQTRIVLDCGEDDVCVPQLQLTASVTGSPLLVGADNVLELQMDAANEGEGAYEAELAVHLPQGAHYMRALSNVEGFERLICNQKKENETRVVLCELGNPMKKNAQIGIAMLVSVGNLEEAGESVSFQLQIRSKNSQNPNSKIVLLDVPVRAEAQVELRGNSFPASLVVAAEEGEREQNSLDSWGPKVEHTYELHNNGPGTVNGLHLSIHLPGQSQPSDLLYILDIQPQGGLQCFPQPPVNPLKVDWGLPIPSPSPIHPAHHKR
T2 sequence (P08514 891-1039 limits assumed): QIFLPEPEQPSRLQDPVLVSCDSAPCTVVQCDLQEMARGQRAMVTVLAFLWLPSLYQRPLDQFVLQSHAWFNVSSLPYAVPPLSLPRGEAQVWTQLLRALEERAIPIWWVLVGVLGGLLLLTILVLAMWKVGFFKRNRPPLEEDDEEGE
T2 sequence (P05106 27-788): as the sequence (P05106 27-788) above

Take `N=C(N)Nc1cc(C(=O)Nc2ccc(/C=C/C(=O)O)c(Cl)c2)cc(C(F)(F)F)c1` [Example 54, 3-[4-[[[3-[(aminoiminomethyl)amino]-5-(trifluoromethyl)phenyl]carbonyl]amino]-2-chlorophenyl]propenoic acid, trifluoroacetate salt]: the IC50 in experiment [1] worked out at 0.0125 µM; in experiment [2] it was 0.686 µM.
The matching figures for `COc1cc(NC(=O)c2cc(NC(=N)N)cc(C(F)(F)F)c2)ccc1/C=C/C(=O)O` [Example 55, 3-[4-[[[3-[(aminoiminomethyl)amino]-5-(trifluoromethyl)phenyl]carbonyl]amino]-2-methoxyphenyl]propenoic acid, trifluoroacetate salt]: 0.00362 µM and 0.432 µM.
The like results for `O=C(O)/C=C/c1ccc(NC(=O)c2cccc(NC3=NCCCS3)c2)cc1` [Example 56, 3-[4-[[[3-[(5,6-dihydro-4H-1,3-thiazin-2-yl)amino]phenyl]carbonyl]amino]phenyl]propenoic acid, trifluoroacetate salt] were, in that order, 0.00403 µM and 0.656 µM.
For the molecule `Cc1cc(/C=C/C(=O)O)cc(C)c1NC(=O)c1cccc(NC2=NCCCS2)c1` [Example 57, 3-[4-[[[3-[(5,6-dihydro-4H-1,3-thiazin-2-yl)amino]phenyl]carbonyl]amino]3,5-dimethylphenyl]propenoic acid, trifluoroacetate salt], the figures for the IC50 in experiment [1] and in experiment [2] were 0.0258 µM and 12.8 µM, respectively.
The like results for `C/C(=C\C(=O)O)c1ccc(NC(=O)c2cccc(NC(=N)N)c2)cc1` [Example 59, 3-[4-[[[3-[(aminoiminomethyl)amino]phenyl]carbonyl]amino]phenyl]-2-butenoicacid, trifluoroacetate salt] were, in that order, 1.27 µM and 5.14 µM.
The matching figures for `N=C(N)Nc1cccc(C(=O)Nc2ccc(/C=C(\NC(=O)c3ccccc3)C(=O)O)cc2)c1` [Example 60, 3-[4-[[[3-[(aminoiminomethyl)amino]phenyl]carbonyl]amino]phenyl]-2-[(phenylcarbonyl)amino]propenoic acid, trifluoroacetate salt]: 0.0673 µM and 0.44 µM.
Turning to `O=C(O)/C=C/c1cccc(CNC(=O)c2cccc(NC3=NCCCN3)c2)c1` [Example 62, 3-[3-[[[[3-[(1,4,5,6-tetrahydropyrimidin-2-yl)amino]phenyl]carbonyl]amino]methyl]phenyl]propenoic acid, monohydrochloride], the IC50 in experiment [1] was 0.00204 µM; in experiment [2], 23.3 µM.
The matching figures for `O=C(O)/C=C/c1cccc(CNC(=O)c2cccc(NC(=O)NCc3ccccc3)c2)c1` [Example 64, 3-[3-[[[[3-[[[(phenylmethyl)amino]carbonyl]amino]phenyl]carbonyl]amino]methyl]phenyl]propenoic acid, trifluoroacetate salt]: 2.18 µM and 16.2 µM.
As for `CC(C)COC(=O)N1CCN=C1Nc1cccc(C(=O)NCc2cccc(/C=C/C(=O)O)c2)c1` [Example 65, 3-[3-[[[[3-[[4,5-dihydro-1-[(2-methylpropoxy)carbonyl]-1H-imidazol-2-yl]amino]phenyl]carbonyl]amino]methyl]phenyl]propenoic acid, monohydrochloride hydrate], the results for the IC50 in experiment [1] and in experiment [2] were 0.0121 µM and 4.95 µM, respectively.
Regarding `O=C(O)/C=C/c1cccc(CNC(=O)c2cccc(NC3=NCCN3)c2)c1` [Example 67, 3-[3-[[[[3-[(4,5-dihydro-1H-imidazol-2-yl)amino]phenyl]carbonyl]amino]methyl]phenyl]propenoic acid, monohydrochloride hydrate], the IC50 in experiment [1] amounted to 0.00227 µM; in experiment [2], 12 µM.
For `O=C(O)/C=C/c1cccc(CNC(=O)c2cc(NC3=NCCCN3)cc(C(F)(F)F)c2)c1` [Example 69, 3-[3-[[[[3-[(1,4,5,6-tetrahydropyrimidin-2-yl)amino]-5-(trifluoromethyl)phenyl]carbonyl]amino]methyl]phenyl]propenoic acid, dihydrochloride hydrate], the results for the IC50 in experiment [1] and in experiment [2] were 0.00178 µM and 38.9 µM, respectively.
The like results for `O=C(O)/C=C/c1cccc(CNC(=O)c2cc(NC3=NCCN3)cc(C(F)(F)F)c2)c1` [Example 71, 3-[3-[[[[3-[(4,5-dihydro-1H-imidazol-2-yl)amino]-5-(trifluoromethyl)phenyl]carbonyl]amino]methyl]phenyl]propenoic acid, monohydrochloride hydrate] were, in that order, 0.00133 µM and 18.5 µM.
The matching figures for `O=C(O)/C=C/c1cccc(CNC(=O)c2cccc(Nc3ncccn3)c2)c1` [Example 73, 3-[3-[[[[3-[(2-pyrimidinyl)amino]phenyl]carbonyl]amino]methyl]phenyl]propenoic acid, trifluoroacetate salt]: 20.4 µM and 66 µM.
`CC/C(=C\C(=O)O)c1cccc(CNC(=O)c2cccc(NC(=N)N)c2)c1` [Example 74, 3-[3-[[[[3-[(aminoiminomethyl)amino]phenyl]carbonyl]amino]methyl]phenyl]-2E-pentenoic acid, trifluoroacetate salt hydrate]: the IC50 in experiment [1] was 2.69 µM; in experiment [2], greater than 100 µM.
The like results for `N=C(N)Nc1cccc(C(=O)NCc2cccc(C(=CC(=O)O)c3cc(Cl)cc(Cl)c3)c2)c1` [Example 75, 3-[3-[[[[3-[(aminoiminomethyl)amino]phenyl]carbonyl]amino]methyl]phenyl]-3-(3,5-dichlorophenyl) propenoic acid, trifluoroacetate salt] were, in that order, 42.7 µM and greater than 100 µM.
The like results for `O=C(O)/C=C/c1ccc2c(c1)CCN2C(=O)c1cccc(NC2=NCCCN2)c1` [Example 76, 3-[2,3-dihydro-1-[[3-[(1,4,5,6-tetrahydropyrimidin-2-yl)amino]phenyl]carbonyl]-1H-indol-5-yl]propenoic acid, trifluoroacetate salt] were, in that order, 0.0088 µM and 0.825 µM.
In the case of `O=C(O)/C=C/c1ccc2c(c1)CCN2C(=O)c1cccc(NC2=NCCN2)c1` [Example 77, 3-[1-[[3-[(4,5-dihydro-1H-imidazol-2-yl)amino]phenyl]carbonyl]2,3-dihydro-1H-indol-5-yl]propenoic acid, trifluoroacetate salt], the figures for the IC50 in experiment [1] and in experiment [2] were 0.0123 µM and 0.231 µM, respectively.
The like results for `O=C(O)/C=C/c1ccc2c(c1)CCCN2C(=O)c1cccc(NC2=NCCCN2)c1` [Example 78, 3-[1-[[3-[(1,4,5,6-tetrahydropyrimidin-2-yl)amino]phenyl]carbonyl]-1,2,3,4-tetrahydro-quinolin-6-yl]propenoic acid, trifluoroacetate salt] were, in that order, 0.0563 µM and 1.79 µM.
`N=C(N)Nc1cccc(C(=O)COc2cccc(/C=C/C(=O)O)c2)c1` [Example 79, 3-[3-[2-[3-[(aminoimino)methyl]amino]phenyl]-2-oxoethoxy]phenyl]propenoic acid, trifluoroacetate salt]: the values for the IC50 in experiment [1] and in experiment [2] were 0.012 µM and 0.415 µM, respectively.
Regarding `O=C(O)/C=C/c1cccc(OCC(=O)c2cccc(NC3=NCCN3)c2)c1` [Example 80, 3-[3-[2-[3-[(4,5-dihydro-1H-imidazol-2-yl)amino]phenyl]-2-oxoethoxy]phenyl]propenoic acid, trifluoroacetate salt], the values for the IC50 in experiment [1] and in experiment [2] were 0.00102 µM and 3.47 µM, respectively.
The matching figures for `N=C(N)Nc1cccc(C(O)CNc2cccc(/C=C/C(=O)O)c2)c1` (stereo not shown) [Example 81, 3-[3-[[2-[3-[(aminoiminomethyl)amino]phenyl]-2-hydroxyethyl]amino]phenyl]propenoic acid, (bis)trifluoroacetate salt hydrate]: 0.0543 µM and 5.02 µM.
The like results for `O=C(O)/C=C/c1cccc(C(=O)COc2cccc(NC3=NCCN3)c2)c1` [Example 83, 3-[3-[2-[3-[(4,5-dihydro-1H-imidazol-2-yl)amino]phenoxy]acetyl]phenyl]propenoic acid, trifluoroacetate salt] were, in that order, 0.0217 µM and 10 µM.
For the molecule `N=C(N)Nc1cccc(/C=C/C(=O)c2ccc(F)c(/C=C/C(=O)O)c2)c1` [Example 84, 3-[5-[3-[3-[(aminoiminomethyl)amino]phenyl]-1-oxopropenyl]-2-fluorophenyl]propenoic acid, trifluoroacetate salt], the IC50 in experiment [1] came out at 0.891 µM; in experiment [2], 35.2 µM.
Consider `O=C(O)C=Cc1cc(C(=O)C=Cc2cccc(C3=NCCCN3)c2)ccc1F` [Example 85, 3-[5-[3-[3-[(1,4,5,6-tetrahydrolpyrimidin-2-yl)]phenyl]-1-oxopropenyl]-2-fluorophenyl]propenoic acid, trifluoroacetate salt], for which the IC50 in experiment [1] was 0.092 µM; in experiment [2], 20.8 µM.
Take `COc1ccc(/C=C/C(=O)O)cc1C(=O)/C=C/c1cccc(NC(=N)N)c1` [Example 86, 3-[3-[3-[3-[(aminoiminomethyl)amino]phenyl]-1-oxopropenyl]-4-methoxyphenyl]propenoic acid, trifluoroacetate salt]: the IC50 was 0.58 µM in experiment [1] and 0.563 µM in experiment [2].
The matching figures for `COc1ccc(/C=C/C(=O)O)cc1C(=O)/C=C/c1cccc(NC2=NCCN2)c1` [Example 87, 3-[3-[3-[3-[(4,5-dihydro-1H-imidazol-2-yl)amino]phenyl]-1-oxopropenyl]-4-methoxyphenyl]propenoic acid, trifluoroacetate salt]: 0.0905 µM and 2.64 µM.
